According to patent publication US20260083723A1, “THERAPEUTIC AGENT OR PROPHYLACTIC AGENT FOR AMYOTROPHIC LATERAL SCLEROSIS” (Toray Industries, Inc., priority 2022, published 2026):

Tested on: superoxide dismutase 1 (SOD1) G93A transgenic mice
Experiment: Assessment of motor dysfunction in amyotrophic lateral sclerosis model mouse (hind limb extension test)
Format: in vivo
Conditions: 100 mg/kg orally once daily, five times a week, from 56 days of age for 10 weeks; male SOD1 G93A transgenic mice; n=9
Method: The effect of the tetrahydroquinoline derivative (I) or a pharmaceutically acceptable salt thereof on the onset of a motor dysfunction in superoxide dismutase 1 (SOD1) G93A transgenic mice that are amyotrophic lateral sclerosis model mice was tested. The tetrahydroquinoline derivative (I) or a pharmaceutically acceptable salt thereof was evaluated using the compound of Example 1. The amyotrophic lateral sclerosis model mice used were transgenic mice overexpressing human superoxide dismutase 1 (SOD1) with G93A mutation (Jackson Laboratories #004435). Male transgenic mice and wild-type female C57BL/6J mice from Charles River were mated. The tail tips of the born offspring mice were used for genotyping. The obtained male transgenic mice were used for the evaluation. The test substance (compound of Example 1) was prepared as a suspension with the required concentration (10 mg/mL) using 0.5 w/v % methylcellulose as the vehicle, and was administered repeatedly and orally, once daily, five times a week, at a dosing volume of 10 mL/kg, or 100 mg/kg, starting at 56 days of age and continuing for 10 weeks (50 doses in total) until the mice reached 126 days of age. A group administered repeatedly and orally with the compound of Example 1 was termed the “Example 1” group (n=9). In addition, a group administered with 0.5 w/v % methylcellulose in the same volume, frequency, and method as the compound of Example 1 was termed the “vehicle” group (n=6). Whenever possible, litters were divided into both groups. Starting from the beginning of administration, a hind limb extension test was conducted before each dose to evaluate the motor function. […] The hind limb extension test was performed five times a week.

Compound | median value of the onset age in days
Cl.c1ccc(C2CCc3ccccc3N2)cc1 (stereo not drawn) [Example 1, 2-phenyl-1,2,3,4-tetrahydroquinoline hydrochloride] | 121.0 days of age

Same assay, conditions: 100 mg/kg orally once daily, five times a week, from 56 days of age for 10 weeks; significantly higher than vehicle group

Compound | age of onset in days vs vehicle group, log-rank (Mantel-Cox) test p
Cl.c1ccc(C2CCc3ccccc3N2)cc1 (stereo not drawn) [Example 1, 2-phenyl-1,2,3,4-tetrahydroquinoline hydrochloride] | < 0.05

Same assay, conditions: compared to the vehicle group

Compound | effect on onset of motor dysfunction in amyotrophic lateral sclerosis model mice (in words)
Cl.c1ccc(C2CCc3ccccc3N2)cc1 (stereo not drawn) [Example 1, 2-phenyl-1,2,3,4-tetrahydroquinoline hydrochloride] | delay the onset

Tested on: not listed separately
Experiment: In vitro radical scavenging action (DPPH method)
Conditions: 1.2-100 μmol/L, 30 minutes at room temperature, absorbance at 517 nm
Method: The radical scavenging action of a test compound can be evaluated using an in vitro test and, for example, by a method (Antioxidants, 2019, vol. 258) using a stable radical, 1,1-diphenyl-2-picrylhydrazil (DPPH).
Radical scavenging action was evaluated using the DPPH method in the compound of Comparative Example 1, which is a tetrahydroquinoxaline derivative, and in the tetrahydroquinoline derivative (I) or a pharmaceutically acceptable salt thereof. The DPPH method was performed using an antioxidant capacity measurement kit (Dojindo Laboratories).
A test compound was dissolved in DMSO, and the resulting solution was then mixed with an assay buffer and a DPPH solution, which are included in the kit, to a total volume of 200 μL to obtain a final concentration of 10% DMSO, and the reaction was allowed to proceed. Wells added with […] ferrostatin-1, a radical scavenger, were grouped as “control,” and wells not added with test compound were grouped as “background”. The test compound was serially diluted 3-fold starting from a maximum concentration of 100 μmol/L, and the diluted test compound (1.2, 3.7, 11.1, 33.3, or 100 μmol/L) was added and allowed to react at room temperature. Thirty minutes after the reaction, the absorbance at 517 nm was measured, and the average absorbance value was calculated (N=2). The radical scavenging action of the test compound (hereinafter referred to as radical scavenging rate, %) was calculated based on Equation 2. The EC50 value of the test compound was calculated from the radical scavenging rate.
A note “no detection of radical scavenging action (N.D.),” is given to compounds with a EC50 of >100 μmol/L.

EC50 [µM] | Compound
> 100 | Cl.c1ccc(C2CCc3ccccc3N2)cc1 (stereo not drawn) [Example 1, 2-phenyl-1,2,3,4-tetrahydroquinoline hydrochloride]
> 100 | NS(=O)(=O)c1ccc(C2CCc3cc(Cl)ccc3N2)cc1 (stereo not drawn) [Example 116, 4-(6-chloro-1,2,3,4-tetrahydroquinolin-2-yl)benzenesulfonamide]
> 100 | OCc1ccc2c(c1)CCC(c1ccccc1)N2 (stereo not drawn) [Example 58, (2-phenyl-1,2,3,4-tetrahydroquinolin-6-yl)methanol]
> 100 | NC(=O)c1ccc(C2CCc3cc(Cl)ccc3N2)cc1 (stereo not drawn) [Example 122, 4-(6-chloro-1,2,3,4-tetrahydroquinolin-2-yl)benzamide]
> 100 | NS(=O)(=O)c1ccc(C2CCc3cc(F)ccc3N2)cc1 (stereo not drawn) [Example 107, 4-(6-fluoro-1,2,3,4-tetrahydroquinolin-2-yl)benzenesulfonamide]
> 100 | Cc1cccc2c1CCC(c1ccc(S(N)(=O)=O)cc1)N2 (stereo not drawn) [Example 112, 4-(5-methyl-1,2,3,4-tetrahydroquinolin-2-yl)benzenesulfonamide]
> 100 | FC(F)(F)Oc1ccc2c(c1)CCC(c1ccccc1)N2 (stereo not drawn) [Example 81, 2-phenyl-6-(trifluoromethoxy)-1,2,3,4-tetrahydroquinoline]
> 100 | c1ccc([C@@H]2CCc3ccccc3N2)cc1 [Example 3, (S)-2-phenyl-1,2,3,4-tetrahydroquinoline]
> 100 | NS(=O)(=O)c1ccc(C2CCc3c(F)cccc3N2)cc1 (stereo not drawn) [Example 135, 4-(5-fluoro-1,2,3,4-tetrahydroquinolin-2-yl)benzenesulfonamide]
> 100 | O=C(Cc1ccc2c(c1)CCC(c1ccccc1)N2)N1CC(F)(F)C1 (stereo not drawn) [Example 149, 1-(3,3-difluoroazetidin-1-yl)-2-(2-phenyl-1,2,3,4-tetrahydroquinolin-6-yl)ethan-1-one]
> 100 | O=C(Cc1ccc2c(c1)CCC(c1ccccc1)N2)N1CCOCC1 (stereo not drawn) [Example 145, 1-morpholino-2-(2-phenyl-1,2,3,4-tetrahydroquinolin-6-yl)ethan-1-one]
> 100 | Clc1ccc2c(c1)CCC(c1ccccc1)N2 (stereo not drawn) [Example 83, 6-chloro-2-phenyl-1,2,3,4-tetrahydroquinoline]
> 100 | CS(=O)(=O)Nc1ccc(C2CCc3ccccc3N2)cc1 (stereo not drawn) [Example 136, N-(4-(1,2,3,4-tetrahydroquinolin-2-yl)phenyl)methanesulfonamide]
> 100 | Cc1ccc2c(c1)NC(c1ccc(S(N)(=O)=O)cc1)CC2 (stereo not drawn) [Example 105, 4-(7-methyl-1,2,3,4-tetrahydroquinolin-2-yl)benzenesulfonamide]
> 100 | Fc1ccc(C2CCc3ccccc3N2)cc1 (stereo not drawn) [Example 26, 2-(4-fluorophenyl)-1,2,3,4-tetrahydroquinoline]
> 100 | NC(=O)c1ccc(C2CCc3cc(F)ccc3N2)cc1 (stereo not drawn) [Example 132, 4-(6-fluoro-1,2,3,4-tetrahydroquinolin-2-yl)benzamide]
> 100 | Fc1ccc2c(c1)CCC(c1ccccc1)N2 (stereo not drawn) [Example 82, 6-fluoro-2-phenyl-1,2,3,4-tetrahydroquinoline]

Tested on: Human fibrosarcoma cells (HT-1080 cells)
Experiment: In vitro inhibitory action against ferroptosis (Erastin-induced cell death, Cell Counting Kit-8)
Format: cell-based
Conditions: Evaluation concentration 30 μmol/L, Erastin 3 μmol/L, 24 hours
Method: The inhibitory action against ferroptosis of the tetrahydroquinoline derivative (I) or a pharmaceutically acceptable salt thereof was evaluated with Human fibrosarcoma cells (HT-1080 cells), by using, as an index, the inhibitory action against the cell death induced by treatment with a ferroptosis inducer, Erastin.
HT-1080 cells (ATCC) were cultured in a mixture (hereinafter referred to as vehicle) composed of DMEM/F12 (Thermo Fisher Scientific, Inc.), a final concentration of 10% fetal bovine serum (Thermo Fisher Scientific, Inc.), and a final concentration of 1% penicillin-streptomycin solution (Nacalai Tesque, Inc.). Cells were seeded into 96-well plates (Corning Inc.) at 5×10^4 cells/well and cultured overnight.
A test compound was dissolved in DMSO, and the resulting solution was diluted in the vehicle to a final concentration of 1% DMSO and then used. […] Twenty-four hours after the addition of Erastin, 5 μL of Cell Counting Kit-8 (Dojindo Laboratories) was added to each well and incubated for 4 hours, and the absorbance at 450 nm was then measured for each well (N=2). The average absorbance value at 450 nm was calculated from the absorbance values of the wells, and the inhibition rate of ferroptosis by the test compound (hereinafter referred to as ferroptosis inhibition rate, %) was then calculated based on Equation 1.

Compound | Ferroptosis inhibition rate (%)
7-fluoro-(1H-pyrazol-4-yl)-1,2,3,4-tetrahydroquinoline [Example 140] | 72.81
